Results as given in US20230226092A1, “CANCER […] ON G[…]” (NuCana plc, priority 2015, published 2023).

System: advance progressive cancers that are refractory to, or have relapsed on, all conventional therapies
Test: ProGem1 dose escalation clinical study: clinical response (RECIST 1.1, tumour markers)
Type: in vivo, human
Design: CA125 level / CA19.9 / CEA / CA125 / Tumour volume / CA 15.3 tumour marker / inhibin B: unit not given here
Excerpt: The following data were generated in clinical studies of NUC-1031 in human patients with advance progressive cancers that are refractory to, or have relapsed on, all conventional therapies that have been used to date. The results clearly illustrate the ability of NUC-1031 to successfully treat refractory cancers.
Although the primary objectives of the dose escalation part of the study were to determine the Recommended Phase II Dose (RP2D) and safety profile, secondary objectives included determining the PK profile, however effective treatment of patients with a range of refractory cancers has also been observed as part of this study.
A total of 68 patients have been entered into this dose escalation study, of which 49 were evaluable for clinical response in that they have received at least 2 Cycles of NUC-1031 and were therefore eligible for a RECIST 1.1 assessment.
NUC-1031 was administered as a 5 to 30 minute intravenous slow bolus injection. • Schedule A: NUC-1031 was administered on days 1, 8, 15 of a 4 weekly Cycle. • Schedule B: NUC-1031 was administered on days 1, 5, 8, 12, 15, 19, of a 4 weekly Cycle.
Evaluable patients were patients that received ≥ 2 Cycles of NUC-1031 and were therefore eligible for a RECIST 1.1 assessment at the end of Cycle 2. Where the disease response duration, measured in months, is followed by a “+” this indicates ongoing disease control as of the latest cut-off date.

[1] = Patient 004, breast cancer, 500 mg/m^2 weekly
[2] = Patient 005, ovarian cancer, 500 mg/m^2 weekly
[3] = Patient 006, cholangiocarcinoma, 375 mg/m^2 twice weekly, then 500 mg/m^2 weekly
[4] = Patient 008, cancer of unknown primary, 375 mg/m^2 twice weekly
[5] = Patient 010, endometrial cancer
[6] = Patient 015, cancer of unknown primary, ongoing
[7] = Patient 021, fallopian tube cancer
[8] = Patient 025, mesothelioma, 725 mg/m^2 weekly
[9] = Patient 026, colorectal cancer, 725 mg/m^2 weekly
[10] = Patient 029, breast cancer, 725 mg/m^2 weekly
[11] = Patient 030, ovarian cancer, 725 mg/m^2 weekly
[12] = Patient 032, oesophageal cancer, 750 mg/m^2 weekly
[13] = Patient 033, cholangiocarcinoma, 750 mg/m^2 weekly

With “gemcitabine-[phenyl-benzoxy-L-alaninyl)]-phosphate [NUC-1031]” the Disease response duration [1] was 12 months, the “Response to RECIST” value [1] was “Stable Disease” and the “Remained stable with no further treatment” value (Patient 004, breast cancer, after Cycle 7) was 5 months. The Disease response duration [2] was 15 months, the “Response to RECIST” value [2] was “Stable Disease” and the “Time to relapse after stopping treatment” value (Patient 005, ovarian cancer, after 12 months of treatment) was 3 months. For the same substance, the CA125 level (Patient 005, ovarian cancer, end of Cycle 6, from 208 at start of study) was 140, the CT scan finding (Patient 006, cholangiocarcinoma) was “reduction in metastatic lung lesion and lymph node from baseline” and the Disease response duration [3] was 3 months. The “Response to RECIST” value [3] was “Stable Disease”, the CA19.9 (Patient 006, cholangiocarcinoma, after two doses, from 125,002) was 59,285 and the Disease response duration (Patient 007, colorectal cancer) was 3 months. For the same substance, the “Response to RECIST” value (Patient 007, colorectal cancer, 375 mg/m^2 twice weekly, then 500 mg/m^2 weekly) was “Stable Disease”, the CEA (Patient 007, colorectal cancer, from 361) was 286 and the CA19.9 (Patient 007, colorectal cancer, from 3,151) was 2,957. The Disease response duration [4] was 3 months, the “Response to RECIST” value [4] was “Stable Disease” and the Symptomatic benefit (Patient 008, cancer of unknown primary, Cycle 1) was “symptomatic relief on treatment and a general improvement in mood and wellbeing”. The Disease response duration [5] was 9 months, the “Stable Disease maintained after stopping NUC-1031” value [5] was 3 months and the “Response to RECIST” value (Patient 010, endometrial cancer, 750 mg/m^2 weekly, then 500 mg/m^2) was “Stable Disease”. The CA125 (Patient 010, endometrial cancer, from 727) was 488, the Disease response duration (Patient 011, uterine carcinosarcoma) was 4 months and the “Reduction in tumour volume” value (Patient 011, uterine carcinosarcoma, 375 mg/m^2 twice weekly) was 26%. For the same substance, the “Response to RECIST” value (Patient 011, uterine carcinosarcoma, 375 mg/m^2 twice weekly, then 625 mg/m^2 weekly) was “Stable Disease”, the Disease response duration (Patient 012, cholangiocarcinoma) was 8 months and the “Response to RECIST” value (Patient 012, cholangiocarcinoma, 375 mg/m^2 twice weekly, then 625 mg/m^2 weekly) was “Stable Disease”. The Disease response duration (Patient 013, cervical cancer) was 9 months, the PFS (Patient 013, cervical cancer) was 11 months and the “Response to RECIST” value (Patient 013, cervical cancer, 750, then 625, then 500 mg/m^2 weekly) was “Partial Response”. For the same substance, the Symptomatic benefit (Patient 013, cervical cancer, lower pelvic pain) was “relief of this pain on treatment, with significant reduction of opioid usage”, the “Response to RECIST” value (Patient 014, mesothelioma, 750, then 625 mg/m^2 weekly) was “Progressive Disease” and the “Response to RECIST” value (Patient 015, cancer of unknown primary, 750, then 625, then 500 mg/m^2 weekly) was “Partial Response”. For the same substance, the “Reduction in tumour size” value (Patient 015, cancer of unknown primary, CT scan 9th January 2015) was about 58%, the Symptomatic benefit (Patient 015, cancer of unknown primary, following Cycle 1) was “the oedema and ascites had gone” and the Disease response duration [6] was at least 20 months. The PFS [6] was at least 24 months, the Disease response duration (Patient 017, lung cancer) was 3 months and the PFS (Patient 017, lung cancer) was 10 months. The Symptomatic benefit (Patient 017, lung cancer) was “improvement in hoarse voice and dysphagia”, the “Response to RECIST” value (Patient 017, lung cancer (adenocarcinoma), 750, then 625 mg/m^2 weekly) was “Partial Response” and the “Response to RECIST” value (Patient 018, lung cancer (squamous cell), 625 mg/m^2 weekly) was “Stable Disease”. For the same substance, the Disease response duration (Patient 018, lung cancer, 625 mg/m^2 weekly) was 4 months, the “Response duration according to GCIG criteria” value [7] was 9 months and the “Response duration according to RECIST” value [7] was 3 months. For the same substance, the Symptomatic benefit [7] was “significant reduction in abdominal ascites”, the Best overall response (Patient 021, fallopian tube cancer, 625 mg/m^2 weekly) was “Partial Response” and the “CA125 reduction from baseline” value (Patient 021, fallopian tube cancer, end of Cycle 6) was 91%. The CA125 (Patient 021, fallopian tube cancer, end of Cycle 6, baseline 372) was 35, the “Response to RECIST” value (Patient 024, cancer of unknown primary, 675 mg/m^2 weekly) was “Progressive Disease” and the Disease response duration [8] was 4 months. The “Response to RECIST” value [8] was “Stable Disease”, the Symptomatic benefit (Patient 026, colorectal cancer) was “Significant improvement in pain, with dramatic reduction in use of opioid analgesia” and the Disease response duration [9] was 4 months. For the same substance, the “Response to RECIST” value [9] was “Stable Disease”, the Disease response duration (Patient 027, ovarian cancer) was 8 months and the “Reduction in tumour volume” value (Patient 027, ovarian cancer) was 23%. The “Response to RECIST” value (Patient 027, ovarian cancer, 725, then 675, then 625 mg/m^2 weekly) was “Stable Disease”, the CA125 (Patient 027, ovarian cancer, end of Cycle 6, from 188 at baseline) was 99 and the Disease response duration [10] was 4 months. The “Response to RECIST” value [10] was “Stable Disease”, the Disease response duration [11] was 3 months and the “Response to RECIST” value [11] was “Stable Disease”. For the same substance, the “Response (end of Cycle 2 CT scan)” value (Patient 031, cholangiocarcinoma, 750 mg/m^2 weekly) was “Progressive Disease”, the Disease response duration [12] was 2 months and the “Response to RECIST” value [12] was “Stable Disease”. For the same substance, the Disease response duration [13] was 3 months, the “Response to RECIST” value [13] was “Stable Disease” and the Disease response duration (Patient 036, renal carcinoma) was 5 months. The “Response to RECIST” value (Patient 036, renal carcinoma, 825, then 750 mg/m^2 weekly) was “Stable Disease”, the “Reduction in tumour volume” value (Patient 036, renal carcinoma, end of Cycle 4 CT scan) was 7% and the Disease response duration (Patient 037, pancreatic cancer) was 1 month. For the same substance, the PFS (Patient 037, pancreatic cancer) was 4 months, the Symptomatic benefit (Patient 037, pancreatic cancer) was “Pain in abdomen and back had significantly improved” and the “Response to RECIST” value (Patient 037, pancreatic cancer, 1,000, then 900 mg/m^2 weekly) was “Partial Response”.
